Reference: patent US20140031227A1, “HERBICIDAL COMPOSITIONS COMPRISING 4-AMINO-3-CHLORO-5-FLUORO-6-(4-CHLORO-2-FLUORO-3-METHOXYPHENYL) PYRIDINE-2-CARBOXYLIC ACID OR A DERIVATIVE THEREOF AND GLYPHOSATE OR GLUFOSINATE” (DOW AGROSCIENCES LLC, priority 2012, published 2014)

Tests used:
Format in all cases: in vivo
Details in all cases: Compound A n-Butyl Ester alone, 16 gae/ha
[1] = system: ECHCG (Echinochloa crusgalli (L.) Beauv., barnyardgrass); experiment: Example I postemergence foliar-applied mixtures, direct seeded rice weeds, greenhouse: ECHCG
Description: (§1) Seeds or nutlets of the desired test plant species were planted in a soil matrix prepared by mixing a loam or sandy loam soil (e.g., 28.6 percent silt, 18.8 percent clay, and 52.6 percent sand, with a pH of about 5.8 and an organic matter content of about 1.8 percent) and calcareous grit in an 80 to 20 ratio. The soil matrix was contained in plastic pots with a volume of 1 quart and a surface area of 83.6 square centimeters (cm^2). […] The plants were grown for 8-22 days in a greenhouse with an approximate 14 hr photoperiod which was maintained at about 29° C. during the day and 26° C. during the night. Nutrients (Peters Excel® 15-5-15 5-Ca 2-Mg and iron chelate) were applied in the irrigation solution as needed and water was added on a regular basis. Supplemental lighting was provided with overhead metal halide 1000-Watt lamps as necessary. The plants were employed for testing when they reached the first through fourth true leaf stage.
(§2) Treatments consisted of the acid or esters of 4-amino-3-chloro-5-fluoro-6-(4-chloro-2-fluoro-3-methoxy-phenyl)pyridine-2-carboxylic acid (Compound A), each formulated as an SC (suspension concentrate), and various herbicidal components alone and in combination. Forms of compound A were applied on an acid equivalent basis.
(§3) For treatments comprised of formulated compounds, measured amounts of compounds were placed individually in 25 mL glass vials and diluted in a volume of 1.25% (v/v) Agri-Dex® crop oil concentrated to obtain 12× stock solutions. […] Application solutions were prepared by adding an appropriate amount of each stock solution (e.g., 1 mL) and diluted to the appropriate final concentrations with the addition of 10 mL of an aqueous mixture of 1.25% (v/v) crop oil concentrate so that the final spray solutions contained 1.25+/−0.05% (v/v) crop oil concentrate.
(§4) All stock solutions and applications solutions were visually inspected for compound compatibility prior to application. Spray solutions were applied to the plant material with an overhead Mandel track sprayer equipped with a 8002E nozzles calibrated to deliver 187 L/ha over an application area of 0.503 m^2 at a spray height of 18 to 20 inches (46 to 50 cm) above average plant canopy height. Control plants were sprayed in the same manner with the solvent blank.
(§5) The treated plants and control plants were placed in a greenhouse as described above and watered by sub-irrigation to prevent wash-off of the test compounds. After approximately 3 weeks, the condition of the test plants as compared with that of the untreated plants was determined visually and scored on a scale of 0 to 100 percent where 0 corresponds to no injury or growth inhibition and 100 corresponds to complete kill.
(§6) Colby's equation was used to determine the herbicidal effects expected from the mixtures (Colby, S. R. 1967. Calculation of the synergistic and antagonistic response of herbicide combinations. Weeds 15:20-22.).

[2] = system: LEFCH (Leptochloa chinensis (L.) Nees, Chinese sprangletop); experiment: Example I postemergence foliar-applied mixtures, direct seeded rice weeds, greenhouse: LEFCH
Description: as §1, §2, §3, §4, §5, §6

[3] = system: IPOHE (Ipomoea hederacea Jacq., ivyleaf morningglory); experiment: Example I postemergence foliar-applied mixtures, direct seeded rice weeds, greenhouse: IPOHE
Description: as §1, §2, §3, §4, §5, §6

CCCCOC(=O)c1nc(-c2ccc(Cl)c(OC)c2F)c(F)c(N)c1Cl [Compound A n-Butyl Ester]
Visual Weed Control (%) - 20 DAA ECHCG Obs [1]: 65% | Visual Weed Control (%) - 20 DAA LEFCH Obs [2]: 10% | Visual Weed Control (%) - 20 DAA IPOHE Obs [3]: 15%
